From patent publication US8952024B2, “Herbicidal pyrimidone derivatives” (E I du Pont de Nemours and Company, priority 2009, dated 2015)
Read-outs that look alike come from different tables or passages of the source.

Columns and labels:
Format in all cases: in vivo
wild oat (Avena fatua) = assay: Test B pre-/postemergence plant response; conditions: for pest or weed control at 31 g/ha: 31 g ai/ha; for pest or weed control at 62 g/ha: 62 g ai/ha; for pest or weed control at 125 g/ha: 125 g ai/ha
How it was run: (§1)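 Greenhouse herbicide screen. Pre- and postemergence (1- to 4-leaf) spray of compound in solvent/surfactant mixture; loam–sand soil for pre, peat/vermiculite medium for post. Visual control rating 0–100 at 13 to 15 days after treatment.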

[1] = test system: galium (catchweed bedstraw, Galium aparine); assay: Test B pre-/postemergence plant response; conditions: Preemergence
How it was run: as §1

[2] = test system: nightshade (eastern black nightshade, Solanum ptycanthum); assay: Test B pre-/postemergence plant response; conditions: Preemergence
How it was run: as §1

[3] = test system: sunflower (common oilseed sunflower, Helianthus annuus); assay: Test B pre-/postemergence plant response; conditions: Preemergence
How it was run: as §1

[4] = test system: Italian ryegrass (Lolium multiflorum); assay: Test D pre-/postemergence plant response
How it was run: (§2)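 Under greenhouse conditions for 14 to 21 days, plants treated pre- or postemergence with surfactant-formulated compound were compared by eye with untreated controls and scored 0–100 (100 = complete control; dash = no result).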

[5] = test system: guineagrass (Panicum maximum); assay: Test D pre-/postemergence plant response
How it was run: as §2

[6] = test system: nutsedge (purple nutsedge, Cyperus rotundus); assay: Test D pre-/postemergence plant response
How it was run: as §2

[7] = test system: groundsel (common groundsel, Senecio vulgaris); assay: Test D pre-/postemergence plant response; conditions: Postemergence
How it was run: as §2

[8] = test system: Surinam grass (Brachiaria decumbens); assay: Test D pre-/postemergence plant response
How it was run: as §2

[9] = test system: johnsongrass (Sorghum halepense); assay: Test D pre-/postemergence plant response
How it was run: as §2

[10] = test system: field bindweed (Convolvulus arvensis); assay: Test D pre-/postemergence plant response
How it was run: as §2

[11] = test system: prickly sida (Sida spinosa); assay: Test D pre-/postemergence plant response
How it was run: as §2

[12] = Avena fatua, pre-emergence, Preemergence, scale 0 to 100 (0 no effect, 100 complete control), read-out: Plant response rating, Oat, Wild
[13] = 31 g ai/ha, scale 0 to 100 (0 no effect, 100 complete control)
[14] = 62 g ai/ha, scale 0 to 100 (0 no effect, 100 complete control)
[15] = 125 g ai/ha, scale 0 to 100, 0 no effect, 100 complete control
[16] = Postemergence, 31 g ai/ha, scale 0 to 100
[17] = Postemergence, 62 g ai/ha, scale 0 to 100 (0 no effect, 100 complete control)
[18] = Postemergence, 125 g ai/ha, scale 0 to 100 (0 no effect, 100 complete control)
[19] = Postemergence, 250 g ai/ha, scale 0 to 100 (0 no effect, 100 complete control)
[20] = Preemergence, 125 g ai/ha, scale 0 to 100
[21] = Preemergence, 250 g ai/ha, scale 0 to 100
[22] = Preemergence, 62 g ai/ha, scale 0 to 100

For `COCCn1c(-c2cc(F)cc(F)c2)ncc(C(=O)C2=C(O)C3CCC(C3)C2=O)c1=O` (centres unmarked) [Compound 243, 2-(3,5-difluorophenyl)-5-[(2-hydroxy-4-oxobicyclo[3.2.1]oct-2-en-3-yl)carbonyl]-3-(2-methoxyethyl)-4(3H)-pyrimidinone], the pest or weed control at 31 g/ha (wild oat (Avena fatua); Avena fatua, post-emergence, Postemergence, 0 to 100 scale (0 no effect, 100 complete control), read-out: Plant response rating, Oat, Wild) was 80%, the pest or weed control at 62 g/ha (wild oat (Avena fatua); Avena fatua, post-emergence, Postemergence, scale 0 to 100 (0 no effect, 100 complete control), read-out: Plant response rating, Oat, Wild) was 85% and the pest or weed control at 125 g/ha (wild oat (Avena fatua); Avena fatua, post-emergence, Postemergence, scale 0 (no effect) to 100 (complete control), 13 to 15 days, read-out: Plant response rating, Oat, Wild) was 85%. For the same molecule, the pest or weed control at 250 g/ha (wild oat (Avena fatua); Avena fatua, post-emergence, Postemergence, 250 g ai/ha, scale 0 to 100 (0 no effect, 100 complete control), 13 to 15 days, read-out: Plant response rating, Oat, Wild) was 100%, the pest or weed control at 31 g/ha (wild oat (Avena fatua); [12]) was 30% and the pest or weed control at 62 g/ha (wild oat (Avena fatua); [12]) was 85%. The pest or weed control at 125 g/ha (wild oat (Avena fatua); Avena fatua, pre-emergence, Preemergence, scale 0 to 100, 0 no effect, 100 complete control, read-out: Plant response rating, Oat, Wild) was 85%, the “Oat, Wild plant response rating” value (wild oat (Avena fatua); Preemergence, 250 g ai/ha, 0 to 100 scale) was 90 and the “Plant response rating, Galium” value [1, 13] was 85. The “Plant response rating, Galium” value [1, 14] was 90, the “Plant response rating, Galium” value [1, 15] was 98 and the “Galium plant response rating” value ([1]; 250 g ai/ha, 0 to 100 scale) was 100. For the same molecule, the “Plant response rating, Nightshade” value [2, 13] was 90, the “Plant response rating, Nightshade” value [2, 14] was 98 and the “Plant response rating, Nightshade” value [2, 15] was 98. For the same molecule, the “Nightshade plant response rating” value ([2]; 250 g ai/ha, 0 to 100 scale) was 98, the “Plant response rating, Sunflower” value [3, 13] was 80 and the “Plant response rating, Sunflower” value [3, 14] was 85. For the same molecule, the “Plant response rating, Sunflower” value [3, 15] was 95, the “Sunflower plant response rating” value ([3]; 250 g ai/ha, 0 to 100 scale) was 95 and the “Plant response rating, Ryegrass, Italian” value [4, 16] was 0. For the same molecule, the “Plant response rating, Ryegrass, Italian” value [4, 17] was 20, the “Plant response rating, Ryegrass, Italian” value [4, 18] was 30 and the “Plant response rating, Ryegrass, Italian” value [4, 19] was 65. For the same molecule, the “Plant response rating, Ryegrass, Italian” value [4, 20] was 98, the “Plant response rating, Ryegrass, Italian” value [4, 21] was 100 and the “Plant response rating, Guineagrass” value [5, 16] was 70. For the same molecule, the “Plant response rating, Guineagrass” value [5, 17] was 75, the “Plant response rating, Guineagrass” value [5, 18] was 75 and the “Plant response rating, Guineagrass” value [5, 19] was 85. For the same molecule, the “Plant response rating, Guineagrass” value [5, 22] was 100, the “Plant response rating, Guineagrass” value [5, 20] was 100 and the “Plant response rating, Guineagrass” value [5, 21] was 100. The “Plant response rating, Nutsedge, Purple” value [6, 16] was 20, the “Plant response rating, Nutsedge, Purple” value [6, 17] was 25 and the “Plant response rating, Nutsedge, Purple” value [6, 18] was 25. The “Plant response rating, Nutsedge, Purple” value [6, 19] was 50, the “Plant response rating, Nutsedge, Purple” value [6, 22] was 20 and the “Plant response rating, Nutsedge, Purple” value [6, 20] was 100. For the same molecule, the “Plant response rating, Nutsedge, Purple” value [6, 21] was 100, the “Plant response rating, Groundsel” value ([7]; 31 g ai/ha, scale 0 to 100) was 98 and the “Plant response rating, Groundsel” value [7, 14] was 100. The “Plant response rating, Groundsel” value ([7]; 125 g ai/ha, scale 0 to 100 (0 no effect, 100 complete control)) was 100, the “Plant response rating, Groundsel” value ([7]; 250 g ai/ha, scale 0 to 100 (0 no effect, 100 complete control)) was 100 and the “Plant response rating, Surinam Grass” value [8, 16] was 75. For the same molecule, the “Plant response rating, Surinam Grass” value [8, 17] was 75, the “Plant response rating, Surinam Grass” value [8, 18] was 75 and the “Plant response rating, Surinam Grass” value [8, 19] was 85. For the same molecule, the “Plant response rating, Surinam Grass” value [8, 20] was 100, the “Plant response rating, Surinam Grass” value [8, 21] was 100 and the “Plant response rating, Johnsongrass” value [9, 16] was 70. The “Plant response rating, Johnsongrass” value [9, 17] was 70, the “Plant response rating, Johnsongrass” value [9, 18] was 70 and the “Plant response rating, Johnsongrass” value [9, 19] was 75. For the same molecule, the “Plant response rating, Johnsongrass” value [9, 22] was 100, the “Plant response rating, Johnsongrass” value [9, 20] was 100 and the “Plant response rating, Johnsongrass” value [9, 21] was 100. The “Plant response rating, Field Bindweed” value [10, 16] was 65, the “Plant response rating, Field Bindweed” value [10, 17] was 70 and the “Plant response rating, Field Bindweed” value [10, 18] was 70. For the same molecule, the “Plant response rating, Field Bindweed” value [10, 19] was 70, the “Plant response rating, Field Bindweed” value [10, 22] was 100 and the “Plant response rating, Field Bindweed” value [10, 20] was 100. The “Plant response rating, Field Bindweed” value [10, 21] was 100, the “Plant response rating, Prickly Sida” value [11, 16] was 60 and the “Plant response rating, Prickly Sida” value [11, 17] was 65. For the same molecule, the “Plant response rating, Prickly Sida” value [11, 18] was 70, the “Plant response rating, Prickly Sida” value [11, 19] was 80 and the “Plant response rating, Prickly Sida” value [11, 22] was 100. The “Plant response rating, Prickly Sida” value [11, 20] was 100 and the “Plant response rating, Prickly Sida” value [11, 21] was 100.
